The text below walks through data of publication PMC4212090, “The comprehensive analysis of DEG/ENaC subunits in Hydra reveals a large variety of peptide-gated channels, potentially involved in neuromuscular transmission” (BMC Biology, 2014).

One assay concerns the target HyNaC2/3/5 (Hydra vulgaris (Hydra magnipapillata), UniProt A8DZR6+A8DZR7+D3UD58). The assay can be described thus: Inhibition of HyNaC2/3/5 currents in Xenopus oocytes (TEVC). In kind it is cell-based. The following applies: HyNaC2/3/5. On the procedure: (§1) One of the hallmarks of DEG/ENaCs is the block by the diuretic amiloride.
(§2) Figure 10 Diminazene is a potent inhibitor of HyNaCs. A) Current trace illustrating the concentration-dependent inhibition of HyNaC2/9/7 by diminazene. Block by 100 μM amiloride was used to compare the affinity for diminazene and amiloride. […] Dashed lines represent the zero current level. B) Concentration-response curves showing the concentration-dependent inhibition of HyNaCs by diminazene. HyNaCs, Hydra Na^+ channels.
(§3) To study the biophysical properties of the new HyNaCs, cRNA of HyNaCs was synthesized in vitro (mMessage mMachine kit, Ambion, Austin, Texas, USA) and injected into Xenopus laevis oocytes of stage V and VI. […] Whole cell currents were recorded from defolliculated oocytes by two-electrode voltage-clamp (TEVC) using the amplifier TurboTec 03X (npi electronic GmbH, Tamm, Germany). […]
(§4) EC50 values for Hydra-RFamides I and II as well as IC50 values for diminazene were determined by fits to the Hill equation using IGOR Pro (version 6.06, WaveMetrics, Inc.). Reversal potentials were defined as the first recorded data point, where currents reversed signs from negative to positive. […]

In a further assay the target is HyNaC2/11/5 (Hydra vulgaris (Hydra magnipapillata), UniProt A0A0A0MP55+A8DZR6+D3UD58). Put plainly: Inhibition of HyNaC2/11/5 currents in Xenopus oocytes (TEVC). The format is cell-based. The conditions noted are these: HyNaC2/11/5. As for the experimental part: as §1, §2, §3, §4
Another assay has as its target HyNaC2/3/6 (Hydra vulgaris (Hydra magnipapillata), UniProt A0A0A0MP54+A8DZR6+A8DZR7). The assay can be described thus: Inhibition of HyNaC2/3/6 currents in Xenopus oocytes (TEVC). In kind it is cell-based. The following applies: HyNaC2/3/6. As for the experimental part: as §1, §2, §3, §4
Another assay addresses HyNaC2/4/6 (Hydra vulgaris (Hydra magnipapillata), UniProt A0A0A0MP54+A8DZR6+A8DZR8). Put plainly: Inhibition of HyNaC2/4/6 currents in Xenopus oocytes (TEVC). In kind it is cell-based. The conditions noted are these: HyNaC2/4/6. On the procedure: as §1, §2, §3, §4
The target of another assay is HyNaC2/3/7 (Hydra vulgaris (Hydra magnipapillata), UniProt A0A0A0MP73+A8DZR6+A8DZR7). The assay can be described thus: Inhibition of HyNaC2/3/7 currents in Xenopus oocytes (TEVC). In kind it is cell-based. The conditions noted are these: HyNaC2/3/7. On the procedure:
as §1, §2, §3, §4

Another assay addresses HyNaC2/9/7 (Hydra vulgaris (Hydra magnipapillata), UniProt A0A0A0MP48+A0A0A0MP73+A8DZR6). Put plainly: Inhibition of HyNaC2/9/7 currents in Xenopus oocytes (TEVC). The format is cell-based. The conditions noted are these: HyNaC2/9/7. As for the experimental part: as §1, §2, §3, §4
The next assay concerns the target HyNaC2/10/7 (Hydra vulgaris (Hydra magnipapillata), UniProt A0A0A0MP61+A0A0A0MP73+A8DZR6). The assay can be described thus: Inhibition of HyNaC2/10/7 currents in Xenopus oocytes (TEVC). In kind it is cell-based. The conditions noted are these: HyNaC2/10/7. As for the experimental part: as §1, §2, §3, §4
The test system of a further assay is HyNaCs. Put plainly: Block of HyNaC currents (HyNaCs in general) in Xenopus oocytes. In kind it is cell-based, Hydra magnipapillata. The conditions noted are these: most HyNaCs. As for the experimental part: as §1, §2
To study the biophysical properties of the new HyNaCs, cRNA of HyNaCs was synthesized in vitro (mMessage mMachine kit, Ambion, Austin, Texas, USA) and injected into Xenopus laevis oocytes of stage V and VI. After injection, oocytes were incubated for one to two days at 19°C in oocyte Ringer’s solution 2 (OR-2), which contained (in mM): 82.5 NaCl, 2.5 KCl, 1.0 Na2HPO4, 1.0 MgCl2, 1.0 CaCl2, 5.0 HEPES, 0.5 g/l PVP, 1,000 U/l penicillin and 10 mg/l streptomycin, NaOH was used to adjust pH to 7.3. Whole cell currents were recorded from defolliculated oocytes by two-electrode voltage-clamp (TEVC) using the amplifier TurboTec 03X (npi electronic GmbH, Tamm, Germany). […]

The subject of another assay is Hydra magnipapillata. The assay can be described thus: Feeding reaction (tentacle curling induced by glutathione) of living Hydra. In kind it is in vivo. The conditions noted are these: 10 μM GSH. On the procedure: To find further evidence that amiloride inhibited the feeding reaction via inhibition of HyNaCs, we repeated these experiments with diminazene. Addition of glutathione (GSH; 10 μM final concentration) induced tentacle contractions and animals moved the tentacles to their mouth. After about two minutes, 100% of animals had their tentacles completely curled. […] Although the potency of diminazene in vivo was low, it should be taken into account that septate junctions provide a significant paracellular permeability barrier to the mesogleal space of Hydra. Moreover, it appears that diminazene requires active transport mechanisms for cellular uptake, probably strongly limiting its transcellular transport; amiloride in contrast is, in part, uncharged at neutral pH and has a significant membrane permeability.
Figure 11 Diminazene inhibits the feeding reaction of Hydra magnipapillata . Adult animals were held in plain medium or in medium containing 100, 200 or 300 μM diminazene (Dimi). The feeding response was induced by application of 10 μM glutathione (GSH). The number of animals showing complete tentacle curling was recorded every 30 seconds. *, P <0.05; **, P <0.01; ***, P <0.001.

Assay [1] deals with functional HyNaC heterotrimer. Put plainly: Screen of functional HyNaC heterotrimers in Xenopus oocytes for activation by Hydra-RFamides. In kind it is cell-based, Hydra magnipapillata. The following applies: 5 μM peptide; Xenopus oocytes. On the procedure: We tested the function of the new HyNaCs by co-expression of different HyNaC subunit combinations in Xenopus oocytes. We screened for functional subunit combinations by application of 5 μM Hydra-RFamide I, a potent agonist of HyNaC2/3/5 [4]. When we expressed an individual HyNaC subunit we could never elicit currents. […] When HyNaC2 was part of the injected cRNA pool, however, Hydra-RFamide I elicited currents. Simultaneous expression of HyNaC2 with a single other HyNaC resulted only in a functional channel when we co-expressed HyNaC2 and HyNaC3; it was already known that HyNaC2 and HyNaC3 form a low-affinity peptide-gated channel.
Dashed line represents the zero current level. Amino acid sequences of Hydra-RFamides I to V are shown at the bottom. HyNaC, Hydra Na^+ channel.
Since Hydra-RFamide II had been shown previously to activate HyNaC2/3/5 [4], we tested Hydra-RFamides II to V for channel activation.
To study the biophysical properties of the new HyNaCs, cRNA of HyNaCs was synthesized in vitro (mMessage mMachine kit, Ambion, Austin, Texas, USA) and injected into Xenopus laevis oocytes of stage V and VI. After injection, oocytes were incubated for one to two days at 19°C in oocyte Ringer’s solution 2 (OR-2), which contained (in mM): 82.5 NaCl, 2.5 KCl, 1.0 Na2HPO4, 1.0 MgCl2, 1.0 CaCl2, 5.0 HEPES, 0.5 g/l PVP, 1,000 U/l penicillin and 10 mg/l streptomycin, NaOH was used to adjust pH to 7.3. Whole cell currents were recorded from defolliculated oocytes by two-electrode voltage-clamp (TEVC) using the amplifier TurboTec 03X (npi electronic GmbH, Tamm, Germany). Standard bath solution (in mM: 140 NaCl, 10 HEPES, 1.8 CaCl2 and 1.0 MgCl2. NaOH was used to adjust pH to 7.4.) was exchanged by a pump driven system combined with the oocyte testing carousel (OTC), which was controlled by the interface OTC-20 [53]. To control the OTC-20 and to record the data to the hard drive, the software CellWorks (version 5.1.1; npi electronic GmbH, Tamm, Germany) was used. Data were sampled at 0.1 to 1 kHz and filtered at 20 Hz. HyNaCs are permeable for Ca^2+, activating an endogenous CaCC [40]. Therefore, unless otherwise indicated, oocytes were injected with 50 nl of 20 mM EGTA 30 to 180 minutes before measurements. Reversal potentials and Ca^2+ permeabilities of HyNaCs were studied as described previously.

The target of assay [2] is HyNaC2/11/5 (Hydra magnipapillata).
Assay [3] has as its target HyNaC2/3/5 (Hydra magnipapillata).
The target in assay [4] is HyNaC2/9/7 (Hydra magnipapillata).
The target in assay [5] is HyNaC2/10/7 (Hydra magnipapillata).
In assay [6] the target is HyNaC2/3/6 (Hydra magnipapillata).
For assay [7], the target named is HyNaC2/3/7 (Hydra magnipapillata).
Assay [8] deals with HyNaC2/4/6 (Hydra magnipapillata).

Sequence of HyNaC2/3/7 (A8DZR7 entry or part of it): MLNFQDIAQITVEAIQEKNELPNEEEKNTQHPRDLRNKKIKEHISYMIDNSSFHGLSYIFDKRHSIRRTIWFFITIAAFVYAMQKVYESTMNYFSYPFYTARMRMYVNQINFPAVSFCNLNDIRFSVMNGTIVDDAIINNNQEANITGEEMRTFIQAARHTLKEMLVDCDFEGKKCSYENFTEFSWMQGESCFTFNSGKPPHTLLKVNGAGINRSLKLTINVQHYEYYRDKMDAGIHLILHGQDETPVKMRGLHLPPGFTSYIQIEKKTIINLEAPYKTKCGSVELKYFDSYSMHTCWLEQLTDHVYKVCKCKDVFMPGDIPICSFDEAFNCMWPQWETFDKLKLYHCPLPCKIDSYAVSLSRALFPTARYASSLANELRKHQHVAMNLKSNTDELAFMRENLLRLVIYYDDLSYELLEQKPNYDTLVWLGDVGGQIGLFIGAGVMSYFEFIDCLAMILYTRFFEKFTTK
Sequence of HyNaC2/3/7 (A0A0A0MP73 entry or part of it): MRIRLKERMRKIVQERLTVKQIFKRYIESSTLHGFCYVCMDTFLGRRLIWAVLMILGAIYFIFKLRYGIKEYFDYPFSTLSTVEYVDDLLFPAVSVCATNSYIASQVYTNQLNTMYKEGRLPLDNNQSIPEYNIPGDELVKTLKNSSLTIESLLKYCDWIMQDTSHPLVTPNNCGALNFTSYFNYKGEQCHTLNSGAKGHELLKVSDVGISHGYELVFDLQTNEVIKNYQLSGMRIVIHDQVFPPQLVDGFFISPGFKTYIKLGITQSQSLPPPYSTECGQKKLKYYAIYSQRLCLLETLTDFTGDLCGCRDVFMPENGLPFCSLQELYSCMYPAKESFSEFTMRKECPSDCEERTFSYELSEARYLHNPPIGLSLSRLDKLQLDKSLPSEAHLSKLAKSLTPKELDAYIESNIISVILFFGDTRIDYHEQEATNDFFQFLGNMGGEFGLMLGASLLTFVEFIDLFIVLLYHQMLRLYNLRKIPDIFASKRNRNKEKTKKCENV
Sequence of HyNaC2/3/7 (A8DZR6 entry or part of it): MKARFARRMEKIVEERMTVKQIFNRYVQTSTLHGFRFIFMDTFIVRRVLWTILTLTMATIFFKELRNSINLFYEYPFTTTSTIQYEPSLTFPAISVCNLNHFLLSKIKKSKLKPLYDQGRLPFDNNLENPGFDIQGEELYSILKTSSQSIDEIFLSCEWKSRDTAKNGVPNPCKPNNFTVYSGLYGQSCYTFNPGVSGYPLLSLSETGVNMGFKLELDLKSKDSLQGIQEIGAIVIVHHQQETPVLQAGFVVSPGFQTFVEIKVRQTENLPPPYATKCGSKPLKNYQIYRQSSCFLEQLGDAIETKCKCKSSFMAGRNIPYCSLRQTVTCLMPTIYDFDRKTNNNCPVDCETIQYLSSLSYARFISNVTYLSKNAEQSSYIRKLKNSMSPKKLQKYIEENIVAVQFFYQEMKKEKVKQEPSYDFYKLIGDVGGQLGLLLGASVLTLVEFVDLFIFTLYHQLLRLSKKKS
Sequence of HyNaC2/9/7 (A0A0A0MP48 entry or part of it): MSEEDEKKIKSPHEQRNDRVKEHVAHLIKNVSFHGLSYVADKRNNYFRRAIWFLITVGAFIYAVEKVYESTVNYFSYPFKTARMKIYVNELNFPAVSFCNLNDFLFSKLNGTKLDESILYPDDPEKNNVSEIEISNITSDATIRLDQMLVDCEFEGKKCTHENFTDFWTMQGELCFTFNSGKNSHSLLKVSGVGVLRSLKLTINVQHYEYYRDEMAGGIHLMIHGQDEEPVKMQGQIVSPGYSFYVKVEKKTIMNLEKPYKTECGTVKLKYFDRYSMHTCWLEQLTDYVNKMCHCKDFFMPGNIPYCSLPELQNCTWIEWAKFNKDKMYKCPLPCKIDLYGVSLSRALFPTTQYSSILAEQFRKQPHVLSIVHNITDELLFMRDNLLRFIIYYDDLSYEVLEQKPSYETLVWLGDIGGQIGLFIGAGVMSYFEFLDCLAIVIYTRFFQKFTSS
Sequence of HyNaC2/9/7 (A8DZR6 entry or part of it): as the sequence (A8DZR6 entry or part of it) above
Sequence of HyNaC2/9/7 (A0A0A0MP73 entry or part of it): as the sequence (A0A0A0MP73 entry or part of it) above
Sequence of HyNaC2/3/6 (A0A0A0MP54 entry or part of it): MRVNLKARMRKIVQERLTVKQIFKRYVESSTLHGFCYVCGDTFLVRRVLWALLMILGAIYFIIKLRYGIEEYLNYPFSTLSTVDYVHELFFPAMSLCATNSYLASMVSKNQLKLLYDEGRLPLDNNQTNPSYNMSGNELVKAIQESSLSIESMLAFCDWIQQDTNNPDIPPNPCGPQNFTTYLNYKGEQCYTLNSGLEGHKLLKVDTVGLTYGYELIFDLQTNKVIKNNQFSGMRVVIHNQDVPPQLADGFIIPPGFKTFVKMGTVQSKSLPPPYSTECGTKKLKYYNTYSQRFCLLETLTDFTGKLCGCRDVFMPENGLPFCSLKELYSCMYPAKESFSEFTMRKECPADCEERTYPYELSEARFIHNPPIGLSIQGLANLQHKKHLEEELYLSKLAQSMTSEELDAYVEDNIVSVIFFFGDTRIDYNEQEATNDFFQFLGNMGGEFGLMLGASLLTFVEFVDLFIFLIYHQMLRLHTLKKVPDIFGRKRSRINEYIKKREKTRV
Sequence of HyNaC2/3/6 (A8DZR7 entry or part of it): as the sequence (A8DZR7 entry or part of it) above
Sequence of HyNaC2/3/6 (A8DZR6 entry or part of it): as the sequence (A8DZR6 entry or part of it) above

Take `N=C(N)c1ccc(/N=N/Nc2ccc(C(=N)N)cc2)cc1` [diminazene]: the IC50 is 450 ± 90 nM against HyNaC2/3/5; 31.4 ± 9.4 µM against HyNaC2/11/5; 90 ± 20 nM against HyNaC2/3/6; 50 ± 20 nM on HyNaC2/4/6; 160 ± 80 nM at HyNaC2/3/7; 1700 ± 580 nM on HyNaC2/9/7. Moreover, 5.4 ± 1.45 µM corresponded to half-maximal inhibition against HyNaC2/10/7 (IC50). Further, the “block of HyNaC currents” value in the assay on HyNaCs (10 μM diminazene) was “almost completely blocked”. Also, in the assay on HyNaCs (estimated), the “potency relative to amiloride” value is more than 100 fold. The “tentacle curling (feeding reaction)” value in the assay on Hydra magnipapillata (100 μM diminazene in medium) is “slightly delayed”. Besides, in the assay with Hydra magnipapillata (200 μM diminazene in medium), the “initiation of tentacles movement (feeding reaction)” value was “more strongly and significantly (P ≤0.01) delayed”. In the assay on Hydra magnipapillata (300 μM diminazene in medium), the feeding reaction result was “strongly inhibited the feeding reaction”. The “animals with tentacles completely curled” value in the assay with Hydra magnipapillata (300 μM diminazene in medium, after four minutes) stood at 20%.

As for Hydra-RFamide V, in assay [1], the “activation of functional HyNaC heterotrimers (current elicited)” value is “did not elicit a current”.

Consider Hydra-RFamide II (peptide), for which the figures for the EC50 of current activation by Hydra-RFamide II (two-electrode voltage clamp, Xenopus oocytes injected with EGTA) in [2], in [3] and in assay [4] were 0.95 µM, 1.61 µM and 0.04 µM, respectively. The current at the highest concentration of Hydra-RFamide II of the concentration-response series (two-electrode voltage clamp, EGTA-injected oocytes); concentrations and EC50 not given in [5] was 1.1 μA; in [6] it was 9.2 μA; in [7] it was 11.8 μA; in [8], 4.7 μA.

In general, IC50 refers to the point on the concentration scale where inhibition reaches its midpoint. Read a high IC50 as lower potency.
